Assays:
[1] = Assay C: metabolic stability in human liver microsomes (Human MST); format: in vitro ADME; conditions: pooled human liver microsomes, pH 7.6, 1 μM compound, 37° C., read-out: Human MST t1/2
Text: Stability in human liver microsomes refers to the susceptibility of compounds to biotransformation in the context of selecting and/or designing drugs with favorable pharmacokinetic properties. The primary site of metabolism for many drugs is the liver. Human liver microsomes contain the cytochrome P450s (CYPs), and thus represent a model system for studying drug metabolization in vitro. Enhanced stability in human liver microsomes is associated with several advantages, including increased bioavailability and longer half-life, which can enable lower and less frequent dosing of patients. Thus, enhanced stability in human liver microsomes is a favorable characteristic for compounds that are to be used for drugs.
C. Assessment of Metabolic Stability in Human Liver Microsomes (Human MST)
The metabolic stability of the compounds according to the invention may be investigated as follows:
The metabolic degradation of the test compound is assayed at 37° C. with pooled human liver microsomes. The final incubation volume of 100 μL per time point contains TRIS buffer pH 7.6 at room temperature (0.1 M), MgCl2 (5 mM), microsomal protein (1 mg/mL) and the test compound at a final concentration of 1 μM. Following a short pre-incubation period at 37° C., the reactions are initiated by addition of beta-nicotinamide adenine dinucleotide phosphate, reduced form (NADPH, 1 mM), and terminated by transferring an aliquot into solvent after different time points. After centrifugation (10000 g, 5 min), an aliquot of the supernatant is assayed by LC-MS/MS for the amount of parent compound. The half-life (t1/2) is determined by the slope of the semi-logarithmic plot of the concentration-time profile.

human orexin 2 receptor = molecular target: T1, human orexin 2 receptor (Homo sapiens, UniProt O43614); assay: Assay B: OX2R IP1 (in vitro OX2R potency); format: cell-based; conditions: 0.5 nM Orexin A concentration
T1 construct: stably expressing the full-length human orexin 2 receptor and the aequorin photoprotein; expressed in transfected cells; host or cells: CHO-K1 (CHO-K1/hOx2), co-expressing aequorin
T1 sequence (O43614 1-444): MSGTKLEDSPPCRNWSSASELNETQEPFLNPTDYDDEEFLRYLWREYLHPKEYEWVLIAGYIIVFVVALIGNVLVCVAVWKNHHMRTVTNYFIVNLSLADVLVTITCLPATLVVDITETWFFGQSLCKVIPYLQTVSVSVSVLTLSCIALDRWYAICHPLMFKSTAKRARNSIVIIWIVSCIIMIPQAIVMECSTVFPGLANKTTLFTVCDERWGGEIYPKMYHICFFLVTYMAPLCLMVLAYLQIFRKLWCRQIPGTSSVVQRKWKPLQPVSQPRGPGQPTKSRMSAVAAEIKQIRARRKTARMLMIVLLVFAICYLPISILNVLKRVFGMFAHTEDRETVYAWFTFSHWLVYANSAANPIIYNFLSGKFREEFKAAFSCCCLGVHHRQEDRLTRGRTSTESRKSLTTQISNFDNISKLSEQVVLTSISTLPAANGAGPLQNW
Text: Activation of the orexin receptors expressed in cell lines results in an increase in intracellular IP3 concentration. IP1, a downstream metabolite of IP3, accumulates in cells following receptor activation and is stable in the presence of LiCl. Using Homogeneous Time-Resolved Fluorescence technology with Lumi4-Tb cryptate (commercially available from Cisbio Bioassay.) and a suitable fluorescence plate reader. […] Chem. Genomics 2009, 3, 22-32. This technique is used to characterize pharmacological modification of the orexin receptors.
B. In Vitro Testing of OX2R Potency: OX2R IP1
IP1 measurements are performed in CHO-K1 cells stably expressing the full-length human orexin 2 receptor and the aequorin photoprotein. Cells are cultivated in Ham's nutrient mixture F12 medium with 10% fetal calf serum, in a 37° C., 95% humidity and 5% CO2 incubator. The CHO-K1/hOx2 cell mass is expanded to larger cell numbers. The cells are obtained as frozen cells in cryo-vials and stored until use at −150° C. The viability of the cells after thawing is >90%. In preparation for the assay, 24 hours before the assay, the cells are thawed at 37° C. and immediately diluted with cell culture medium. After centrifugation, the cell pellet is resuspended in medium and then distributed into the assay plates with a density of 5000 cells/25 μL per well. The plates are incubated for one hour at room temperature to reduce edge effects before they are incubated for 24 hours at 37° C./5% CO2. Compounds are prepared by a 8-point serial dilution in DMSO and a final dilution step into assay buffer (HBSS with 20 mM HEPES, 0.1% BSA and 50 mM LiCl, pH 7.4) to ensure a final DMSO concentration of 1% in the assay. On the day of the assay, cells in the plate are washed twice with 60 μL assay buffer (20 μL buffer remained in the wells after washing), followed by adding 5 μL per well of compounds diluted in assay buffer. After 15 minutes of incubation at room temperature 5 μL per well of Orexin A peptide (final concentration: 0.5 nM) dissolved in assay buffer is added to the assay plate. The assay plate is incubated for 60 minutes at 37° C. Then 5 μl per well of Anti-IP1-Cryptate Tb solution and 5 μl per well of IP1-d2 dilution are added to all well of the plate and the plate is incubated for a further 60 minutes light protected at room temperature. The emission at 615 nm and 665 nm (Excitation wavelength: 320 nm) are measured using an EnVision reader (PerkinElmer). The ratio between the emission at 665 nm and 615 is calculated by the reader.
8-point four parametric non-linear curve fitting and determination of IC50 values and Hill slopes is performed using a regular analysis software e.g. AssayExplorer (Accelrys). In order to establish an agonist concentration independent parameter, Kb values are calculated using the following equation: IC50/((2+(A/EC50)n)^1/n−1) (with A=concentration agonist, EC50=EC50 agonist, n=Hill slope agonist) (see P. Leff, I. G. Dougall, Trends Pharmacol. Sci. 1993, 14(4), 110-112).
Kb values from Assay A (OX1R) and Assay B (OX2R) can then provide a selectivity ratio which is independent of the agonist (Orexin A) concentration.

OX2R = molecular target: T2, OX2R (Homo sapiens, UniProt O43614); conditions: cited from earlier work
T2 sequence (O43614 1-444): T1 sequence (O43614 1-444)

human MDR1 P-gp = assay: Assay D: efflux in MDCK cells transfected with the human MDR1 gene; format: in vitro ADME, canine; conditions: dog; MDCK-MDR1 monolayers, pH 7.4, 37° C.; read-out: MDCK efflux ratio (BA/AB)
Experimental: The MDCK assay provides information on the potential of a compound to pass the blood brain barrier. Permeability measurements across polarized, confluent MDCK-MDR1 cell monolayers grown on permeable filter supports are used as an in vitro absorption model: apparent permeability coefficients (PE) of the compounds across the MDCK-MDR1 cell monolayers are measured (pH 7.4, 37° C.) in apical-to-basal (AB) and basal-to-apical (BA) transport direction. The AB permeability (PEAB) represents drug absorption from the blood into the brain and the BA permeability (PEBA) drug efflux from the brain back into the blood via both, passive permeability as well as active transport mechanisms mediated by efflux and uptake transporters that are expressed on the MDCK-MDR1 cells, predominantly by the overexpressed human MDR1 P-gp. Identical or similar permeabilities in both transport directions indicate passive permeation, vectorial permeability points to additional active transport mechanisms. Higher PEBA than PEAB (PEBA/PEAB>5) indicates the involvement of active efflux mediated by MDR1 P-gp, which might compromises the goal to achieve sufficient brain exposure. Therefore this assay provides valuable support for selection of compounds applicable for further in vivo testing. High permeability not limited by efflux at the blood brain barrier is a favourable characteristic for compounds that are to be used for drugs acting primarily in the CNS
D. Assessment of Efflux in Madin-Darby Canine Kidney (MDCK) Cells Transfected with the Human MDR1 Gene
Apparent permeability coefficients (PE) of the compounds across the MDCK-MDR1 cell monolayers are measured (pH 7.4, 37° C.) in apical-to-basal (AB) and basal-to-apical (BA) transport direction. AB permeability (PEAB) represents drug absorption from the blood into the brain and BA permeability (PEBA) drug efflux from the brain back into the blood via both passive permeability as well as active transport mechanisms mediated by efflux and uptake transporters that are expressed on the MDCK-MDR1 cells, predominantly by the overexpressed human MDR1 P-gp. The compounds are assigned to permeability/absorption classes by comparison of the AB permeabilities with the AB permeabilities of reference compounds with known in vitro permeability and oral absorption in the human. Identical or similar permeabilities in both transport directions indicate passive permeation, vectorial permeability points to additional active transport mechanisms. Higher PEBA than PEAB indicates the involvement of active efflux mediated by MDR1 P-gp. Active transport is concentration-dependently saturable.
MDCK-MDR1 cells (1-2×10e5 cells/1 cm2 area) are seeded on filter inserts (Costar transwell polycarbonate or PET filters, 0.4 μm pore size) and cultured (DMEM) for 7 days. Subsequently, the MDR1 expression is boosted by culturing the cells with 5 mM sodium butyrate in full medium for 2 days. Compounds are dissolved in appropriate solvent (like DMSO, 1-20 mM stock solutions). Stock solutions are diluted with HTP-4 buffer (128.13 mM NaCl, 5.36 mM KCl, 1 mM MgSO4, 1.8 mM CaCl2, 4.17 mM NaHCO3, 1.19 mM Na2HPO4×7H2O, 0.41 mM NaH2PO4×H2O, 15 mM HEPES, 20 mM glucose, 0.25% BSA, pH 7.4) to prepare the transport solutions (0.1-300 μM compound, final DMSO<=0.5%). The transport solution (TL) is applied to the apical or basolateral donor side for measuring A-B or B-A permeability (3 filter replicates), respectively. The receiver side contains the same buffer as the donor side. Samples are collected at the start and end of experiment from the donor and at various time intervals for up to 2 hours also from the receiver side for concentration measurement by HPLC-MS/MS or scintillation counting. Sampled receiver volumes are replaced with fresh receiver solution.

OX1R = molecular target: T3, OX1R (Homo sapiens, UniProt O43613); conditions: cited from earlier work
T3 sequence (O43613 1-425): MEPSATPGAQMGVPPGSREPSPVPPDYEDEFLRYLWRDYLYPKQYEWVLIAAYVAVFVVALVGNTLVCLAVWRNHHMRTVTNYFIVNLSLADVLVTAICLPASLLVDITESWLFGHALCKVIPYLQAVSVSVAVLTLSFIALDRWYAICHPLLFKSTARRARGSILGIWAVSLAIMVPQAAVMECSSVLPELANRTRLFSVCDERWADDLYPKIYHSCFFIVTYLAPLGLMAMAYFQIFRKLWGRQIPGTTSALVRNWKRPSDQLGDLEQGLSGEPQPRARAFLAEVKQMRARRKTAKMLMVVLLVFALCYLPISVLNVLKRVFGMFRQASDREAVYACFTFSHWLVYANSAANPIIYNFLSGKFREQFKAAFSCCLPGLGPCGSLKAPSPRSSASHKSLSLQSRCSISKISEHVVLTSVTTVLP

[2] = as described in WO03/051872 (page 16-18)
[3] = corresponds to pKb described in WO03/051872

CCN(C(=O)c1cccc(Cl)c1-n1nccn1)[C@@H](C)CNc1ncc(C(F)(F)F)cn1 [Example 3]
half-life at 1 μM [1]: 1.4 h
Kb (human orexin 2 receptor): 0.00627 µM

CCN(C(=O)c1cc(F)cc(F)c1-n1nccn1)[C@@H](C)CNc1ncc(C(F)(F)F)cn1 [Example 6]
half-life at 1 μM [1]: > 2 h
Kb (human orexin 2 receptor): 0.0531 µM

Cc1nc(C(=O)N(C)CCNc2ncc(Br)cn2)c(-c2ccc(F)cc2)s1 [Example 6 in WO03/051872]
OX2R pKb (OX2R; [2]): <6.6 to 7.4
OX2R Kb (OX2R; [3]): >250 to 40 nM
efflux ratio (human MDR1 P-gp): 0.8
OX1R pKb (OX1R; [2]): 6.4 to 7.4
OX1R Kb (OX1R; [3]): 400 to 40 nM
